Data reported in patent US20230026611A1, “ARYL HETEROCYCLIC COMPOUNDS AS Kv1.3 POTASSIUM SHAKER CHANNEL BLOCKERS” (D. E. Shaw Research, LLC, priority 2019, published 2023).

The compounds below were run against T1, Kv1.3 potassium channel (Homo sapiens, UniProt P22001) (assay: Kv1.3 potassium channel blocker activity, automated whole-cell patch clamp (Patchliner) in CHO-K1 cells stably expressing Kv1.3). Conditions: CHO-K1 cells stably expressing Kv1.3; patch clamp, current inhibition; read-out: Kv1.3 IC50.
T1 construct: expressed in transfected cells
T1 sequence (P22001 whole entry): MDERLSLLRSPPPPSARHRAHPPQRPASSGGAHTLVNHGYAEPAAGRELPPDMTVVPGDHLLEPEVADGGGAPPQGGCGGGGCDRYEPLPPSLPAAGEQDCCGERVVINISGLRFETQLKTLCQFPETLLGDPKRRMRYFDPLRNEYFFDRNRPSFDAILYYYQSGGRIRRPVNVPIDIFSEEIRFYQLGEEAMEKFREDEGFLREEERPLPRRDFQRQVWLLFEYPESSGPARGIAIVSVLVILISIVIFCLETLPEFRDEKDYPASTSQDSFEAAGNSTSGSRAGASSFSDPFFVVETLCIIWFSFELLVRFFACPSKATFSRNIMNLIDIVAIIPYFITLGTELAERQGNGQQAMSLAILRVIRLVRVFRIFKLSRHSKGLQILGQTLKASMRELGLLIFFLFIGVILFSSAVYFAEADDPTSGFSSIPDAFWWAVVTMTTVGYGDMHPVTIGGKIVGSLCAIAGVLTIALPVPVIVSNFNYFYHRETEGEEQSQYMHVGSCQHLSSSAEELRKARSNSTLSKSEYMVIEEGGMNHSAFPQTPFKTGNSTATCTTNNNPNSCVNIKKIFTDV
Type: cell-based
Description: Example 82. Evaluation of Kv1.3 potassium channel blocker activities
This assay is used to evaluate the disclosed compounds' activities as Kv1.3 potassium channel blockers.
CHO-K1 cells stably expressing Kv1.3 were grown in DMEM containing 10% heat-inactivated FBS, 1 mM sodium pyruvate, 2 mM L-glutamine, and G418 (500 μg/ml).
All compounds were dissolved in DMSO at 30 mM.
The currents were evoked by applying 100 ms depolarizing pulses from −90 mV (holding potential) to +40 mV were applied with 0.1 Hz frequency. […] 10-second breaks were used between pulse trains (see Table A below).
Data were sampled at 10 kHz without filtering. Passive leak currents were subtracted online using a P/4 procedure (HEKA Elektronik Dr. Schulze GmbH). […] Total compound incubation time before the next pulse train was not longer than 10 seconds. Peak current inhibition was observed during compound equilibration.

IC50 [µM]	Compound
< 10	O=C([C@H]1C[C@H](c2c(O)ccc(Cl)c2Cl)CCN1)N1CCOCC1 (relative stereo) [Compound 76, (2R,4R)-rel-3,4-dichloro-2-[2-(morpholine-4-carbonyl)piperidin-4-yl]phenol]
< 10	CN(C)C(=O)[C@H]1C[C@@H](c2c(O)ccc(Cl)c2Cl)CCN1 (relative stereo) [Compound 77, (2R,4S)-rel-4-(2,3-dichloro-6-hydroxyphenyl)-N,N-dimethylpiperidine-2-carboxamide]
< 10	O=C([C@H]1C[C@@H](c2c(O)ccc(Cl)c2Cl)CCN1)N1CCOCC1 (relative stereo) [Compound 80, (2R,4S)-rel-3,4-dichloro-2-[2-(morpholine-4-carbonyl)piperidin-4-yl]phenol]
< 10	CN(C)C(=O)[C@H]1C[C@H](c2c(O)ccc(Cl)c2Cl)CCN1 (relative stereo) [Compound 82, (2R,4R)-rel-4-(2,3-dichloro-6-hydroxyphenyl)-N,N-dimethylpiperidine-2-carboxamide]
< 10	Nc1nnc([C@H]2C[C@@H](c3c(O)ccc(Cl)c3Cl)CCN2)o1 (relative stereo) [Compound 103, 2-((2R,4S)-rel-2-(5-amino-1,3,4-oxadiazol-2-yl)piperidin-4-yl)-3,4-dichlorophenol]
< 30	O=C(NC1CNC1)[C@H]1CCC(c2c(O)ccc(Cl)c2Cl)N1 (single isomer, unassigned) [Compound 117]

The next lines start with the compound.

Compound	IC50 [µM]
Oc1cc(Cl)c(Cl)cc1[C@@H]1CCNC[C@H]1O (relative stereo) [Compound 7, (3R,4R)-rel-4-(4,5-dichloro-2-hydroxyphenyl)piperidin-3-ol]	< 10
NC[C@H]1CNCC[C@H]1c1cc(Cl)c(Cl)cc1O (relative stereo) [Compound 47, (3R,4S)-rel-2-[3-(aminomethyl)piperidin-4-yl]-4,5-dichlorophenol]	< 30
NC[C@@H]1CNCC[C@H]1c1cc(Cl)c(Cl)cc1O (relative stereo) [Compound 48, (3R,4R)-rel-2-[3-(aminomethyl)piperidin-4-yl]-4,5-dichlorophenol]	< 10
N[C@@H]1CNCC[C@H]1c1cc(Cl)c(Cl)cc1O (relative stereo) [Compound 49, (3R,4R)-rel-2-(3-aminopiperidin-4-yl)-4,5-dichlorophenol]	< 10
NC(=O)[C@H]1CNCC[C@@H]1c1cc(Cl)c(Cl)cc1O (relative stereo) [Compound 50, (3R,4S)-rel-4-(4,5-dichloro-2-hydroxyphenyl)piperidine-3-carboxamide]	< 10
N[C@H]1CNCC[C@H]1c1cc(Cl)c(Cl)cc1O (relative stereo) [Compound 51, (3R,4S)-rel-2-(3-aminopiperidin-4-yl)-4,5-dichlorophenol]	< 10
NC(=O)[C@@H]1CNC[C@H]1c1cc(Cl)c(Cl)cc1O (relative stereo) [Compound 52, (3R,4S)-rel-4-(4,5-dichloro-2-hydroxyphenyl)pyrrolidine-3-carboxamide]	< 10
COC(=O)[C@@H]1CNC[C@H]1c1cc(Cl)c(Cl)cc1O (relative stereo) [Compound 53, (3R,4S)-rel-methyl 4-(4,5-dichloro-2-hydroxyphenyl)pyrrolidine-3-carboxylate]	< 10
OC[C@H]1C[C@@H](c2cc(Cl)c(Cl)cc2O)CCN1 (single isomer, unassigned) [Compound 34]	< 10
OC[C@@H]1C[C@H](c2cc(Cl)c(Cl)cc2O)CCN1 (single isomer, unassigned) [Compound 35]	< 10
NC(=O)[C@@H]1CNCC[C@@H]1c1cc(Cl)c(Cl)cc1O (single isomer, unassigned) [Compound 56]	< 10
NC(=O)[C@H]1CNCC[C@H]1c1cc(Cl)c(Cl)cc1O (single isomer, unassigned) [Compound 58]	< 1
Oc1cc(Cl)c(Cl)cc1C1(O)CCNCC1 (single isomer, unassigned) [Compound 59, 4-(4,5-dichloro-2-hydroxyphenyl)piperidin-4-ol]	< 10
